Where two headings read alike, the source gives them in different places. Values belong to the molecule of their own block, whether it stands above or below them.
Legend:
[1] = molecular target: Recombinant human FLAG-TNAP (Homo sapiens, UniProt P05186); assay: Chemical library screening, TNAP pNPP microtiter plate assay; conditions: for inhibition response: positive controls, 0.5 mM pNPP, pH 9.8, concentration not given
[2] = molecular target: T1, chTNALP (Gallus gallus, UniProt Q92058); assay: Ki of uncompetitive inhibitors (pNPP substrate); type: biochemical, chicken
T1 sequence (Q92058 17-498): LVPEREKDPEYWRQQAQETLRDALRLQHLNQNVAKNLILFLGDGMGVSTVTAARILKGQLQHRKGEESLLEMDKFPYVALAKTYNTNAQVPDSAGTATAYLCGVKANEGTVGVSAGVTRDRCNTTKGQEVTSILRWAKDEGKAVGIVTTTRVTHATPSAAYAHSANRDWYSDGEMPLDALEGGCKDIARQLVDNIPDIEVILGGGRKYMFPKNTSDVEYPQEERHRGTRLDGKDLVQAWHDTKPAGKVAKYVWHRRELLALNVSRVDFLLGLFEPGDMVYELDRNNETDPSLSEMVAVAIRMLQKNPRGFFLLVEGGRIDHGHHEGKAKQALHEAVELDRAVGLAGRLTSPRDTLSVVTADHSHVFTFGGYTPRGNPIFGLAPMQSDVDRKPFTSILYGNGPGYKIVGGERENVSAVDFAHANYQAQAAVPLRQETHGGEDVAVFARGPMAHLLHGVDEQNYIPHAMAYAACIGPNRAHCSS
Source text: (See Kozlenkov A, et al., 2002). […] TNAP and PLAP structures were superimposed and the amino acid differences within a 12 Å radius around the catalytic Zn1 ion were pinpointed. The difference between human TNAP and chicken TNAP were also mapped because it is reported that chicken TNAP is much less susceptible to levamisol than is human TNAP. In total, six positions with amino acid differences were found, which could be clustered into two groups. […] In addition, […] and […] were also investigated.

[3] = tested on: wild-type osteoblasts; conditions: wild-type osteoblasts treated with exogenous PPi; RT-PCR
Source text: To determine whether affecting the function of either NPP1 or ANK would have beneficial consequences on hypophosphatasia by reducing the amounts of extracellular PPi in the Akp2−/− mice, we bred either Enpp1−/− or ank/ank mice to the Akp2−/− mice. […] Hypophosphatasia arises from deficits in TNAP activity, resulting in an increase in PPi levels and concomitant increase in OPN levels.

[4] = tested on: Enpp1−/− and ank/ank mice; conditions: subcutaneous, ALZET osmotic pumps, 10 μg/g/day, compared to control mice
Procedure: Flexibility was measured after euthanasia by determining the degree to which the root of the tail could be pulled back towards the neck, shoulders or lumbar spine until resistance prevented further flexing.
Tetramisole was delivered via ALZET osmotic pumps (Durect Corporation, Cupertino, Calif.) at a dose of 10 μg/g/day.

[5] = dose of 30 micrograms/g BW; results not shown
Source text: (§1) In one example of this pharmacological study tetramisole will be used. […] For ApoE−/− mice arterial calcification is established by 3-months of age. Thus, the pump can feasibly be planted as early as 1-month of age, allowing treatment to begin at least as early.

[6] = tested on: MC3T3-E1 cells
Source text: as §1

[7] = tested on: TNAP activity in Enpp1−/− and ank/ank derived VSMC; conditions: Enpp1−/− and ank/ank derived VSMC in vitro, tetramisole 0.125 mM, 3 weeks (FIG. 5)
Source text: Left panel: A) immunofluorscent detection of smooth muscle alpha-actin. VSMCs were isolated from WT aorta by collagenase digestion, all cells were stained for actin filaments (F-actin) by rhodamine phalloidin (red), and VSMCs were stained using a specific FITC-conjugated monoclonal anti-SM-alpha-actin (green). B) Proportion of cells staining positive for SM-alpha-actin. C) Total RNA was isolated and SM alpha-actin was detected by RT-PCR analysis. Middle panel: VSMCs isolated from WT, Enpp1−/− and ank/ank mice were cultured in the presence of beta-glycerophosphate for 4 weeks. Cells were then stained for TNAP activity (pink) and using von Kossa staining, mineral was detected (black/brown). The area of the culture well in which mineralization was present was quantified by using a point-counting method in which the plate was placed on a grid (divided into 10 mm×10 mm squares) and visualized using a dissecting microscope, the percent area occupied by mineral was assessed by counting the occurrences where the presence of mineral coincided with intercepts on the grid.

[8] = tested on: Akp2−/− mice; conditions: Narisawa et al., 2001; cited from earlier work
[9] = molecular target: T2, hPLALP E107 (Homo sapiens, UniProt P05187, F129E); assay: Ki of uncompetitive inhibitors (pNPP substrate); type: biochemical; conditions: hPLALP mutant E107; read-out: Ki for various inhibitors
T2 construct: made in house
Procedure: (§2) In brief, samples of the enzymes were added to microtiter plates coated with M2 anti-FLAG antibody, and saturating activities with the substrate pNPP were measured in 1 M DEA/HCl buffer, pH 9.8, containing 1 mM MgCl2 and 20 .micro.M ZnCl2.

[10] = molecular target: T3, hPLALP (E107, G108) (Homo sapiens, UniProt P05187, F129E/Q130G); assay: Ki of uncompetitive inhibitors (pNPP substrate); type: biochemical; conditions: hPLALP mutant (E107, G108); read-out: Ki for various inhibitors
T3 construct: made in house; host or cells: COS-7 (given only for the TNAP-Flag constructs)
Procedure: as §2

[11] = molecular target: T4, hPLALP G108 (Homo sapiens, UniProt P05187, Q130G); assay: Ki of uncompetitive inhibitors (pNPP substrate); type: biochemical; conditions: hPLALP mutant G108; read-out: Ki for various inhibitors
T4 construct: made in house; host or cells: COS-7 (given only for the TNAP-Flag constructs)
Procedure: as §2

[12] = molecular target: T5, hPLALP H429 (Homo sapiens, UniProt P05187, E451H); assay: Ki of uncompetitive inhibitors (pNPP substrate); type: biochemical; conditions: hPLALP mutant H429; read-out: Ki for various inhibitors
T5 construct: made in house; host or cells: COS-7 (given only for the TNAP-Flag constructs)
Procedure: as §2

[13] = molecular target: T6, hPLALP D165 (Homo sapiens, UniProt P05187, N187D); assay: Ki of uncompetitive inhibitors (pNPP substrate); type: biochemical; conditions: hPLALP mutant D165; read-out: Ki for various inhibitors
T6 construct: made in house; host or cells: COS-7 (given only for the TNAP-Flag constructs)
Procedure: as §2

[14] = molecular target: T7, hPLALP (Homo sapiens, UniProt P05187); assay: Ki of uncompetitive inhibitors (pNPP substrate); type: biochemical; conditions: read-out: Ki for various inhibitors
T7 construct: made in house
Procedure: as §2

[15] = molecular target: T8, hPLALP (R428, H429) (Homo sapiens, UniProt P05187, D450R/E451H); assay: Ki of uncompetitive inhibitors (pNPP substrate); type: biochemical; conditions: hPLALP mutant (R428, H429); read-out: Ki for various inhibitors
T8 construct: made in house; host or cells: COS-7 (given only for the TNAP-Flag constructs)
Procedure: as §2

[16] = molecular target: T9, hPLALP (G108, G429) (Homo sapiens, UniProt P05187, E451G/Q130G); assay: Ki of uncompetitive inhibitors (pNPP substrate); type: biochemical; conditions: hPLALP mutant (G108, G429); read-out: Ki for various inhibitors
T9 construct: made in house; host or cells: COS-7 (given only for the TNAP-Flag constructs)
Procedure: as §2

[17] = molecular target: T10, hPLALP S119 (Homo sapiens, UniProt P05187, N141S); assay: Ki of uncompetitive inhibitors (pNPP substrate); type: biochemical; conditions: hPLALP mutant S119; read-out: Ki for various inhibitors
T10 construct: made in house; host or cells: COS-7 (given only for the TNAP-Flag constructs)
Procedure: as §2

[18] = molecular target: T11, hPLALP (E107, G429) (Homo sapiens, UniProt P05187, E451G/F129E); assay: Ki of uncompetitive inhibitors (pNPP substrate); type: biochemical; conditions: hPLALP mutant (E107, G429); read-out: Ki for various inhibitors
T11 construct: made in house; host or cells: COS-7 (given only for the TNAP-Flag constructs)
Procedure: as §2

[19] = molecular target: T12, hPLALP R428 (Homo sapiens, UniProt P05187, D450R); assay: Ki of uncompetitive inhibitors (pNPP substrate); type: biochemical; conditions: hPLALP mutant R428; read-out: Ki for various inhibitors
T12 construct: made in house; host or cells: COS-7 (given only for the TNAP-Flag constructs)
Procedure: as §2

[20] = tested on: bovine VSMC calcification; conditions: Shioi et al., 1995; cited from earlier work

Chain of Recombinant human FLAG-TNAP (P05186 18-501 limits assumed): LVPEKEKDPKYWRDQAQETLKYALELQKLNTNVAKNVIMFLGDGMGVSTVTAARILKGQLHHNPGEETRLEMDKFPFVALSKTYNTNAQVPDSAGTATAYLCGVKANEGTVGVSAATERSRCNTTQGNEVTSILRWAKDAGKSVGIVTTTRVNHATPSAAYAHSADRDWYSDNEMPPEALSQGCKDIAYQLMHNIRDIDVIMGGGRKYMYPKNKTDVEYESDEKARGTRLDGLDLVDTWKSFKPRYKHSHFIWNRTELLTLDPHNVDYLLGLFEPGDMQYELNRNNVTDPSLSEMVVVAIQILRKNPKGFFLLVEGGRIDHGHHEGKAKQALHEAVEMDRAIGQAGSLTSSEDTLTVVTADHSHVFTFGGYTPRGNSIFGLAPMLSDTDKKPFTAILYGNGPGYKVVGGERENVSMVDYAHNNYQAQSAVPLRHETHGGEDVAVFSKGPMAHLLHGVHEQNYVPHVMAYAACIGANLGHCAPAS
T4 sequence (P05187 23-506 Q130G limits assumed): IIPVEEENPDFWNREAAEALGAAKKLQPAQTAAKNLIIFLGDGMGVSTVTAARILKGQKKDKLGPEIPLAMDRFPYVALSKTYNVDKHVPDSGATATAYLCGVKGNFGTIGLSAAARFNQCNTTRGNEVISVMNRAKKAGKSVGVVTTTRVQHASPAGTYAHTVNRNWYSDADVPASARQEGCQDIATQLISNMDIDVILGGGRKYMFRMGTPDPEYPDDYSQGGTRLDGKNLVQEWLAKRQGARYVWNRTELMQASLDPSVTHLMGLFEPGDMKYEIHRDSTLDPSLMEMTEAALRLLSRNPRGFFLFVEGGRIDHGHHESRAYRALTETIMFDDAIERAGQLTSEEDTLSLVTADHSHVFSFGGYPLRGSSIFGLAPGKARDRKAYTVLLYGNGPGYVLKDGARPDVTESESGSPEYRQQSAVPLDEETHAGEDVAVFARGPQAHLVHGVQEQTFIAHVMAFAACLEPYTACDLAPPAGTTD
T6 sequence (P05187 23-506 N187D limits assumed): as the sequence (P05187 23-506 Q130G limits assumed) above, with G108Q, N165D counted along it
T11 sequence (P05187 23-506 F129E/E451G limits assumed): as the sequence (P05187 23-506 Q130G limits assumed) above, with F107E, G108Q, E429G counted along it
T5 sequence (P05187 23-506 E451H limits assumed): as the sequence (P05187 23-506 Q130G limits assumed) above, with G108Q, E429H counted along it
T8 sequence (P05187 23-506 D450R/E451H limits assumed): as the sequence (P05187 23-506 Q130G limits assumed) above, with G108Q, D428R, E429H counted along it
T7 sequence (P05187 23-506 limits assumed): as the sequence (P05187 23-506 Q130G limits assumed) above, with G108Q counted along it
T3 sequence (P05187 23-506 F129E/Q130G limits assumed): as the sequence (P05187 23-506 Q130G limits assumed) above, with F107E counted along it
T10 sequence (P05187 23-506 N141S limits assumed): as the sequence (P05187 23-506 Q130G limits assumed) above, with G108Q, N119S counted along it
T9 sequence (P05187 23-506 Q130G/E451G limits assumed): as the sequence (P05187 23-506 Q130G limits assumed) above, with E429G counted along it
T2 sequence (P05187 23-506 F129E limits assumed): as the sequence (P05187 23-506 Q130G limits assumed) above, with F107E, G108Q counted along it
T12 sequence (P05187 23-506 D450R limits assumed): as the sequence (P05187 23-506 Q130G limits assumed) above, with G108Q, D428R counted along it

- inhibition response [1]: around 50%
Molecule: phosphate

Molecule: Cn1c(=O)c2[nH]cnc2n(C)c1=O [Theophylline, theophylline]
- Ki ([2]; Ki for various inhibitors, (1)*, (1)*: 1 mM pNPP): 393 ± 150 µM
- Ki ([2]; Ki for various inhibitors, (20)*, (20)*: 20 mM pNPP): 111 ± 8 µM

Molecule: O=P(O)(O)OP(=O)(O)O [PPi, Inorganic pyrophosphate]
- NPP1 and ANK expression [3]: decreased NPP1 and ANK expression
- OPN expression [3]: increase in OPN expression

Molecule: c1ccc(C2CN3CCSC3=N2)cc1 (stereo not drawn) [tetramisole]
- flexibility of the spine [4]: enhanced flexibility of the spine
- tolerability [5]: well tolerated
- PPi levels [6]: raise PPi levels
- TNAP activity in VSMC [7]: inhibits TNAP activity
- TNAP activity in VSMC ([7]; listed as Tetramisole): normalize TNAP activity

Molecule: Cc1ncc(CO)c(C=O)c1O [pyridoxal]
- apoptosis in the thymus and the lumbar nerve roots [8]: reverses apoptosis
- epileptic seizures [8]: suppresses the epileptic seizures

- Ki ([2]; read-out: Ki for various inhibitors): 136 ± 20 µM
- inhibition response [1]: around 50%
- inhibition of the enzymatic activity of TNAP (confirmed screening hits) ([1]; screen of 53,080 compounds): inhibit the enzymatic activity of TNAP
- Ki [9]: 1.05 ± 0.04 mM
- Ki [10]: 1.15 ± 0.06 mM
- Ki [11]: 458 ± 30 µM
- Ki [12]: 50 ± 3 µM
- Ki [13]: 680 ± 140 µM
- Ki [14]: 563 ± 56 µM
- Ki [15]: 34 ± 1 µM
- Ki [16]: 480 ± 60 µM
- Ki [17]: 630 ± 90 µM
- Ki [18]: 535 ± 80 µM
- Ki [19]: 460 ± 40 µM
Molecule: c1ccc([C@H]2CN3CCSC3=N2)cc1 [Levamisole]
- bovine VSMC calcification [20]: blocks bovine VSMC calcification in a dose-dependent manner
